This passage reports IC50 results from patent US11578061B2, “Inhibitors of LRRK2 kinase” (Halia Therapeutics, Inc., priority 2021, dated 2023).

In the assay the target is recombinant human LRRK2 (catalytic domain only [amino acids 970-2527], GST-tagged) (Homo sapiens (Human), UniProt Q5S007). The experiment in a line: LRRK2 Enzymatic Assay. Format: biochemical. Conditions: LRRKtide substrate, [32P]-ATP. As for the experimental part: LRRKtide substrate (peptide sequence RLGRDKYKTLRQIRQ, derived from human ezrin [amino acids 561-573], moesin [amino acids 539-553] and radixin [amino acids 558-570], obtained from SignalChem, catalogue #L10-58, reconstituted in 20 mM Tris-HCl at pH 7.5 to a final concentration of 1 mg/mL, assay concentration 20 μM) and recombinant human LRRK2 (catalytic domain only [amino acids 970-2527], GST-tagged, expressed in insect cells, obtained from ThermoFisher Scientific, catalogue #PV4874, 0.35 mg/mL, assay concentration 30 nM) were mixed in assay buffer (20 mM Hepes pH 7.5, 10 mM MgCl2, 1 mM EGTA, 0.02% Brij35, 0.02 mg/ml BSA, 0.1 mM Na3VO4, 2 mM DTT, 1% DMSO). Compounds of interest (in DMSO, serial 3-fold dilution from 10 μM to 0.5 nM) or control (1% DMSO) were dispensed into the kinase reaction mixture by Acoustic technology (Echo550; nanoliter range). After incubation at room temperature for 20 minutes, the kinase reaction was initiated by addition of [^32P]-ATP (Specific activity 10 μCi/μl) and the mixture was incubated at room temperature for 2 hours. The reaction was then stopped by spotting the reaction mixture on strips of phosphocellulose P81 paper. Following washing, the radioactivity of the P81 paper was measured and kinase activity data were expressed as the percent remaining kinase activity in test samples compared to vehicle (dimethyl sulfoxide) reactions. IC50 values and curve fits were obtained using Prism (GraphPad Software).
recombinant human LRRK2 (catalytic domain only [amino acids 970-2527], GST-tagged), sequence (Q5S007 970-2527): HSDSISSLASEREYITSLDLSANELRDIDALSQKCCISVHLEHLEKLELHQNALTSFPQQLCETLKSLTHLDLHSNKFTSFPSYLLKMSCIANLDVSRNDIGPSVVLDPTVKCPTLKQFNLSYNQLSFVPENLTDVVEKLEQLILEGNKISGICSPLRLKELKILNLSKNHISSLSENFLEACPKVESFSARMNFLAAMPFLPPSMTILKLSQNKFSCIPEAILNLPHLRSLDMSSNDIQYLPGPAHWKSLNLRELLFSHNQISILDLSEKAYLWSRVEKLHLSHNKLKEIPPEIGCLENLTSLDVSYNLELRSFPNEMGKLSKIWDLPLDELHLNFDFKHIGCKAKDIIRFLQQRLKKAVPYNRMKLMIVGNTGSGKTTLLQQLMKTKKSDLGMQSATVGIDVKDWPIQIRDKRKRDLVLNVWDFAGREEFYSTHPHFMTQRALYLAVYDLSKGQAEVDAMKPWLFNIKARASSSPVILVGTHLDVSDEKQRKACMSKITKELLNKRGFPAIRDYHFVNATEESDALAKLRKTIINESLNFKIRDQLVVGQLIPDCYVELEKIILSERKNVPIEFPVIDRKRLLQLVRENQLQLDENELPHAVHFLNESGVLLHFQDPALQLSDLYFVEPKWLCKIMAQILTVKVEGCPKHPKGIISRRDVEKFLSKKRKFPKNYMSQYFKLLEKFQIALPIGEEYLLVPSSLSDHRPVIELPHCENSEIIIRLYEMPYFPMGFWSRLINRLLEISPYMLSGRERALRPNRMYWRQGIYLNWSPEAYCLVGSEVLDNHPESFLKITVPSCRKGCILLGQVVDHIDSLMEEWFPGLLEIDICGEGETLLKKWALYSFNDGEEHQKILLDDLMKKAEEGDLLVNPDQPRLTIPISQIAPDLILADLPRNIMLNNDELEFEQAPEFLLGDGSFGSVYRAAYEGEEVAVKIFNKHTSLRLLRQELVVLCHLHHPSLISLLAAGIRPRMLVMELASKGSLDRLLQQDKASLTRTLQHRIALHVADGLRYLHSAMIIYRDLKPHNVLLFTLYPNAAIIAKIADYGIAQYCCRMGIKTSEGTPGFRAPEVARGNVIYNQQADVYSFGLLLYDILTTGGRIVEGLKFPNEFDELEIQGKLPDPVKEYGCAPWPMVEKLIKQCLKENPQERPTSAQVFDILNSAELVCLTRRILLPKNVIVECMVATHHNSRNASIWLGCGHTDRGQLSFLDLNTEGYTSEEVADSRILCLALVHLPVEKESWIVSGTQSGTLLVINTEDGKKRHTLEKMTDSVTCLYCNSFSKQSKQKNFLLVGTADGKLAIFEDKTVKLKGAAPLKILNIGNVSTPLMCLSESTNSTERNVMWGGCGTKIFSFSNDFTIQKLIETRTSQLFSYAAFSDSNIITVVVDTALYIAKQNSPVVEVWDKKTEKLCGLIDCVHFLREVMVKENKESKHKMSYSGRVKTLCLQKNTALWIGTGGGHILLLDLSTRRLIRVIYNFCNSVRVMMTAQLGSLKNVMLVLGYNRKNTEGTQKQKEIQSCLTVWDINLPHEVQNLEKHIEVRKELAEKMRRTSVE

By IC50 is commonly meant the concentration at which inhibition is half-maximal.

In the case of `Cc1nn(C(C)(C)C#N)cc1Nc1ncc(F)c(OCC2CCN(C)CC2)n1` [Example 67, 2-(4-((5-fluoro-4-((1-methylpiperidin-4-yl)methoxy)pyrimidin-2-yl)amino)-3-methyl-1H-pyrazol-1-yl)-2-methylpropanenitrile], the IC50 was over 400 nM. The figure for `CN[C@H]1CC[C@H](COc2ccnc(Nc3cnn(C(C)C)c3)n2)CC1` [Example 33] is over 400 nM; for `N[C@H]1CC[C@H](COc2ccnc(Nc3ccc(N4CCOCC4)cc3)n2)CC1` [Example 2, 4-(((1R,4R)-4-aminocyclohexyl)methoxy)-N-(4-morpholinophenyl) pyrimidin-2-amine] it is under 50 nM. The figure for `COc1cnc(Nc2ccc(N3CCOCC3)cc2)nc1OC[C@H]1CC[C@H](NCC(F)(F)F)CC1` [Example 105, 5-methoxy-N-(4-morpholino-phenyl)-4-(((1R,4R)-4-((2,2,2-trifluoroethyl)amino)cyclohexyl)methoxy) pyrimidin-2-amine] is 50 to 200 nM; for `CN[C@H]1CC[C@H](COc2ccnc(Nc3cc(F)c(C(=O)N4CCOCC4)cc3OC)n2)CC1` [Example 34, (2-fluoro-5-methoxy-4-((4-(((1R,4R)-4-(methylamino)cyclo-hexyl)methoxy)py-rimidin-2-yl)amino)phenyl) (morpholino) methanone] it is 50 to 200 nM. For the compound `CC(C)(O)[C@H]1CC[C@H](COc2nc(Nc3ccc(N4CCOCC4)cc3)ncc2Cl)CC1` [Example 137, 2-((1R,4R)-4-(((5-chloro-2-((4-morpholinophenyl)amino)pyrimidin-4-yl)oxy)methyl)cyclohexyl)propan-2-ol], the IC50 is under 50 nM. The figure for `CC(=O)N[C@H]1CC[C@H](COc2nc(Nc3cn(C(C)(C)C#N)nc3C)ncc2Cl)CC1` [Example 81, N-((1R,4R)-4-(((5-chloro-2-((1-(2-cyanopropan-2-yl)-3-methyl-1H-pyrazol-4-yl)amino)pyrimidin-4-yl)oxy)methyl)cyclo-hexyl)acetamide] is under 50 nM. Under `NC[C@H]1CC[C@H](COc2nc(Nc3ccc(N4CCOCC4)cc3)ncc2Cl)CC1` [Example 14, 4-(((1R,4R)-4-(aminomethyl)cyclohexyl)methoxy)-5-chloro-N-(4-morpholinophenyl) pyrimidin-2-amine] stands under 50 nM; under `CNC1CCCC(COc2ccnc(Nc3ccc(N4CCOCC4)cc3)n2)C1` (centres unmarked) [Example 47, 4-((3-(methylamino)cyclo-hexyl)methoxy)-N-(4-morpholinophenyl) pyrimidin-2-amine], 200 to 400 nM. The figure for `O=C(C(F)F)N1CCC(COc2nc(Nc3ccc(N4CCOCC4)cc3)ncc2Cl)CC1` [Example 109, 1-(4-(((5-chloro-2-((4-morpholino-phenyl)amino)pyrimidin-4-yl)oxy)methyl)piperidin-1-yl)-2,2-difluoro-ethan-1-one] is under 50 nM.

As to `CC(=O)NC12C3C4C1C1C2C3C41COc1ccnc(Nc2ccc(N3C[C@@H](C)O[C@@H](C)C3)cc2)n1` (stereo partly drawn) [Example 79, N-(4-(((2-((4-((2S,6R)-2,6-dimethylmorpholino)phenyl)amino)py-rimidin-4-yl)oxy)methyl)cuban-1-yl)acetamide], the IC50 lay within 200 to 400 nM. The figure for `CN[C@H]1CC[C@H](COc2nc(Nc3cn(C(C)(C)C#N)nc3C)ncc2Cl)CC1` [Example 39, 2-(4-((5-chloro-4-(((1R,4R)-4-(methylamino)cyclo-hexyl)methoxy)py-rimidin-2-yl)amino)-3-methyl-1H-pyrazol-1-yl)-2-methylpropanenitrile] is under 50 nM; for `CC(=O)N[C@H]1CC[C@H](COc2nc(Nc3cn(C)nc3C)ncc2F)CC1` [Example 194, N-((1R,4R)-4-(((2-((1,3-dimethyl-1H-pyrazol-4-yl)amino)-5-fluoropyrimidin-4-yl)oxy)methyl)cyclo-hexyl)acetamide] it is 50 to 200 nM; for `CC(=O)N[C@H]1CC[C@@H](COc2nc(Nc3ccc(N4CCOCC4)cc3)ncc2F)C1` [Example 178, N-((1S,3R)-3-(((5-fluoro-2-((4-morpholinophenyl)amino)pyrimidin-4-yl)oxy)methyl)cyclo-pentyl)acetamide] it is 50 to 200 nM.
